Measured values as given in PubChem BioAssay AID196 (DTP/NCI, 2004).
“And” between values parts separate entries of the source, which are not always exact repeats. Identical values can stand only once. Toxic doses and inconclusive results are not listed. How the source made its calls: active means survival T/C of 150% or more; inactive means T/C below 125% in these data.

Test system: BDF1 mice, intracerebral B16 melanoma, median survival T/C
Assay: NCI In Vivo Anticancer Drug Screen. Data for tumor model B16 Melanoma (intracerebral) in B6D2F1 (BDF1) mice
Settings: endpoint: median survival time, higher = longer survival
Procedure: The antitumor activity of compounds was measured in mice bearing transplantable tumors. Survival or tumor size were measured and the results are expressed as the measurement made in the treated group (T) divided by the measurement made in the vehicle treated control group (C). The tumor model used in this assay is B16 Melanoma (intracerebral) in B6D2F1 (BDF1) mice

[1] = dose: 8.0 mg/kg/injection, schedule: Q01DX009 (ip), vehicle: Klucel (hydroxypropylcellulose) (HPC)
[2] = dose: 16.0 mg/kg/injection, schedule: Q01DX009 (ip), vehicle: Klucel (hydroxypropylcellulose) (HPC)
[3] = dose: 32.0 mg/kg/injection, schedule: Q01DX009 (ip), vehicle: Klucel (hydroxypropylcellulose) (HPC)
[4] = dose: 64.0 mg/kg/injection, schedule: Q01DX009 (ip), vehicle: Klucel (hydroxypropylcellulose) (HPC)
[5] = dose: 128.0 mg/kg/injection, schedule: Q01DX009 (ip), vehicle: Klucel (hydroxypropylcellulose) (HPC)
[6] = dose: 8.0 mg/kg/injection, schedule: Q01DX009 (ip), vehicle: saline with Tween-80
[7] = dose: 16.0 mg/kg/injection, schedule: Q01DX009 (ip), vehicle: saline with Tween-80
[8] = dose: 0.5 mg/kg/injection, schedule: Q01DX009 (ip), vehicle: Klucel (hydroxypropylcellulose) (HPC)
[9] = dose: 1.0 mg/kg/injection, schedule: Q01DX009 (ip), vehicle: Klucel (hydroxypropylcellulose) (HPC)
[10] = dose: 32.0 mg/kg/injection, schedule: Q01DX005 (ip), vehicle: saline with Tween-80
[11] = dose: 6.25 mg/kg/injection, schedule: Q01DX009 (ip), vehicle: other
[12] = dose: 12.5 mg/kg/injection, schedule: Q01DX009 (ip), vehicle: other
[13] = dose: 25.0 mg/kg/injection, schedule: Q01DX009 (ip), vehicle: other
[14] = dose: 50.0 mg/kg/injection, schedule: Q01DX009 (ip), vehicle: other

Measured: T/C

CCC(=O)O[C@H]1CC[C@H]2[C@@H]3CC[C@H]4CC(=O)[C@H](C)C[C@]4(C)[C@H]3CC[C@]12C
inactive: [1] 100 % of control | [2] 94 % of control | [3] 105 % of control | [4] 100 % of control | [5] 101 % of control | dose: 256.0 mg/kg/injection, schedule: Q01DX009 (ip), vehicle: Klucel (hydroxypropylcellulose) (HPC) 103 % of control | dose: 512.0 mg/kg/injection, schedule: Q01DX009 (ip), vehicle: Klucel (hydroxypropylcellulose) (HPC) 94 % of control

Nc1ncnc2c1ncn2C1OC(COP(=O)(O)O)C(O)C1O (stereo not given)
inactive: dose: 1600.0 mg/kg/injection, schedule: Q01DX009 (ip), vehicle: saline 99 % of control and 102 % of control

O=c1[nH]cc(F)c(=O)[nH]1
inactive: dose: 5.0 mg/kg/injection, schedule: Q01DX009 (ip), vehicle: saline 104 % of control and 108 % of control | dose: 10.0 mg/kg/injection, schedule: Q01DX009 (ip), vehicle: saline 90 % of control and 116 % of control | dose: 20.0 mg/kg/injection, schedule: Q01DX009 (ip), vehicle: saline 104 % of control and 112 % of control | dose: 40.0 mg/kg/injection, schedule: Q01DX009 (ip), vehicle: saline 87 % of control and 109 % of control

O=C1c2ccccc2C(=O)c2c(NCCNCCO)ccc(NCCNCCO)c21
inactive: dose: 1.0 mg/kg/injection, schedule: Q01DX005 (ip), vehicle: saline with Tween-80 120 % of control and 111 % of control | dose: 1.0 mg/kg/injection, schedule: Q01DX005 (ip), vehicle: saline 99 % of control and 107 % of control | dose: 2.0 mg/kg/injection, schedule: Q01DX005 (ip), vehicle: saline with Tween-80 118 % of control and 109 % of control | dose: 2.0 mg/kg/injection, schedule: Q01DX005 (ip), vehicle: saline 120 % of control and 99 % of control | dose: 4.0 mg/kg/injection, schedule: Q01DX005 (ip), vehicle: saline with Tween-80 109 % of control | dose: 4.0 mg/kg/injection, schedule: Q01DX005 (ip), vehicle: saline 104 % of control and 112 % of control | dose: 4.0 mg/kg/injection, schedule: Q01DX009 (ip), vehicle: saline with Tween-80 99 % of control and 102 % of control | dose: 4.0 mg/kg/injection, schedule: Q01DX009 (ip), vehicle: saline 95 % of control and 103 % of control | [6] 93 % of control and 102 % of control | dose: 8.0 mg/kg/injection, schedule: Q01DX009 (ip), vehicle: saline 98 % of control and 102 % of control | dose: 16.0 mg/kg/injection, schedule: Q01DX005 (ip), vehicle: Klucel (hydroxypropylcellulose) (HPC) 116 % of control | [7] 100 % of control | dose: 16.0 mg/kg/injection, schedule: Q01DX009 (ip), vehicle: saline 102 % of control and 103 % of control | dose: 32.0 mg/kg/injection, schedule: Q01DX005 (ip), vehicle: Klucel (hydroxypropylcellulose) (HPC) 107 % of control | dose: 32.0 mg/kg/injection, schedule: Q01DX009 (ip), vehicle: saline 86 % of control

COc1ccc2cc1Oc1ccc(cc1)C[C@H]1c3cc(c(OC)cc3CCN1C)Oc1c(OC)c(OC)cc3c1[C@H](C2)N(C)CC3
inactive: dose: 50.0 mg/kg/injection, schedule: Q01DX005 (ip), vehicle: Klucel (hydroxypropylcellulose) (HPC) 100 % of control | dose: 100.0 mg/kg/injection, schedule: Q01DX005 (ip), vehicle: Klucel (hydroxypropylcellulose) (HPC) 98 % of control and 103 % of control | dose: 200.0 mg/kg/injection, schedule: Q01DX005 (ip), vehicle: Klucel (hydroxypropylcellulose) (HPC) 119 % of control and 101 % of control | dose: 400.0 mg/kg/injection, schedule: Q01DX005 (ip), vehicle: Klucel (hydroxypropylcellulose) (HPC) 95 % of control and 113 % of control

CC(=O)OCC1C(=O)OCC1C(=O)N1Cc2cc3ccccc3nc2C1 (stereo not given)
inactive: [6] 111 % of control | [7] 99 % of control | dose: 32.0 mg/kg/injection, schedule: Q01DX009 (ip), vehicle: saline with Tween-80 103 % of control | dose: 64.0 mg/kg/injection, schedule: Q01DX009 (ip), vehicle: saline with Tween-80 95 % of control | dose: 128.0 mg/kg/injection, schedule: Q01DX009 (ip), vehicle: saline with Tween-80 93 % of control

CC1CCC(NC(=O)N(CCCl)N=O)CC1 (stereo not given)
inactive: [8] 105 % of control | [9] 102 % of control | dose: 2.0 mg/kg/injection, schedule: Q01DX009 (ip), vehicle: Klucel (hydroxypropylcellulose) (HPC) 111 % of control | dose: 4.0 mg/kg/injection, schedule: Q01DX009 (ip), vehicle: Klucel (hydroxypropylcellulose) (HPC) 117 % of control | dose: 6.48 mg/kg/injection, schedule: Q01DX001 (ip), vehicle: other 106 % of control | dose: 10.8 mg/kg/injection, schedule: Q01DX001 (ip), vehicle: other 117 % of control | dose: 50.0 mg/kg/injection, schedule: Q01DX001 (ip), vehicle: other 118 % of control

COc1ccc(CC2C(=O)NC(C)C(=O)N(C)C3C(=O)N(C)C(Cc4ccc(O)c(c4)Oc4ccc(cc4)C3O)C(=O)NC(C)C(=O)NC(C)C(=O)N2C)cc1 (stereo not given)
inactive: dose: 0.12 mg/kg/injection, schedule: Q01DX009 (ip), vehicle: Klucel (hydroxypropylcellulose) (HPC) 97 % of control and 102 % of control | dose: 0.12 mg/kg/injection, schedule: Q01DX009 (ip), vehicle: saline 93 % of control | dose: 0.25 mg/kg/injection, schedule: Q01DX009 (ip), vehicle: Klucel (hydroxypropylcellulose) (HPC) 100 % of control and 108 % of control | dose: 0.25 mg/kg/injection, schedule: Q01DX009 (ip), vehicle: saline 103 % of control | [8] 94 % of control and 97 % of control and 100 % of control | dose: 0.5 mg/kg/injection, schedule: Q01DX009 (ip), vehicle: saline 102 % of control | [9] 90 % of control and 94 % of control and 100 % of control | dose: 1.0 mg/kg/injection, schedule: Q01DX009 (ip), vehicle: saline 98 % of control | dose: 2.0 mg/kg/injection, schedule: Q01DX009 (ip), vehicle: saline 100 % of control

CC[C@H]1CN2CCc3cc(OC)c(OC)cc3[C@@H]2C[C@@H]1C[C@H]1NCCc2cc(OC)c(OC)cc21
inactive: dose: 2.0 mg/kg/injection, schedule: Q01DX005 (ip), vehicle: Klucel (hydroxypropylcellulose) (HPC) 100 % of control and 104 % of control | dose: 4.0 mg/kg/injection, schedule: Q01DX005 (ip), vehicle: Klucel (hydroxypropylcellulose) (HPC) 90 % of control and 110 % of control | dose: 8.0 mg/kg/injection, schedule: Q01DX005 (ip), vehicle: Klucel (hydroxypropylcellulose) (HPC) 86 % of control and 112 % of control

CN(Cc1cnc2nc(N)nc(N)c2n1)c1c(Cl)cc(C(=O)NC(CCC(=O)O)C(=O)O)cc1Cl (stereo not given)
inactive: [1] 100 % of control | [2] 110 % of control | [3] 94 % of control | [4] 96 % of control | [5] 100 % of control

CCC(C)N(C)/N=N/c1nc[nH]c1C(N)=O (stereo not given)
inactive: dose: 16.0 mg/kg/injection, schedule: Q01DX005 (ip), vehicle: saline with Tween-80 102 % of control | [10] 106 % of control | dose: 64.0 mg/kg/injection, schedule: Q01DX005 (ip), vehicle: saline with Tween-80 112 % of control | dose: 128.0 mg/kg/injection, schedule: Q01DX005 (ip), vehicle: saline with Tween-80 107 % of control

CN(C)N=Nc1ccnc2c(Cl)cccc12
inactive: dose: 3.12 mg/kg/injection, schedule: Q01DX009 (ip), vehicle: other 110 % of control | [11] 116 % of control | [12] 110 % of control | [13] 108 % of control | [14] 112 % of control

CCCCN(C)N=Nc1c(C(N)=O)n[nH]c1C
inactive: [10] 121 % of control

CN(C)N=Nc1cccc2c1N(C)c1ccc(F)cc1S2
inactive: [11] 109 % of control | [12] 110 % of control | [13] 108 % of control | [14] 115 % of control | dose: 100.0 mg/kg/injection, schedule: Q01DX009 (ip), vehicle: other 112 % of control
